Test: solvent given as SMILES

C1CCOC1
Conditions	solvation free energy, 298 K [kcal/mol]
in CC(=O)N(C)C	-3.96
in CC(C)=O	-4.12
in CC(C)CC(C)(C)C	-3.72
in CC(C)CCCC(C)CCCC(C)CCCCC(C)CCCC(C)CCCC(C)C	-3.35
in CC(C)CCl	-4.2
in CC(C)O	-4.01
in CCC(C)Cl	-4.16
in CCCCCC	-3.68
in CCCCCCC	-3.7
in CCCCCCCC	-3.66
in CCCCCCCCCCCCCCCC	-3.43
in CCCCCCCCO	-3.9
in CCCCCl	-4.19
in CCCCN(C=O)CCCC	-3.89
in CCCCOCCCC	-3.8
in CCCCl	-4.31
in CCCO	-4.02
in CCN1CCCC1=O	-3.95
in CCN(CC)C(C)=O	-3.97
in CCNC(C)=O	-3.89
in CCNC=O	-3.93
in CCO	-4.09
in CCOC(C)=O	-4.11
in CN1CCCC1=O	-4.04
in CN1CCCCC1=O	-3.92
in CNC(C)=O	-3.87
in CO	-4.43
in CS(C)=O	-3.67
in ClC(Cl)(Cl)Cl	-4.28
in ClC(Cl)Cl	-5.12
in ClCCCl	-4.53
in NC=O	-3.69
in O	-3.49
in O=CN1CCOCC1	-3.7
in [2H]O[2H]	-3.5

CCCCCN
Conditions	solvation free energy, 298 K [kcal/mol]
in CCCCCCC	-4.79
in O	-4.13

CC1=CC2C(=CC1)C(C)CCC2C(C)C (stereo unspecified)
Conditions	solvation free energy, 298 K [kcal/mol]
in O	-0.26

BrCBr
Conditions	solvation free energy, 298 K [kcal/mol]
in CCCCCCCCCCCCCCCC	-3.87
in CCCCCCCCO	-4.19
in O	-2.01
in [2H]O[2H]	-2.03

CCc1cccnc1
Conditions	solvation free energy, 298 K [kcal/mol]
in O	-4.59

C[N+](=O)[O-]
Conditions	solvation free energy, 298 K [kcal/mol]
in Brc1ccccc1	-4.19
in C1CCCCC1	-2.81
in C1CCOC1	-5.04
in C1COCCO1	-5.08
in CC1COC(=O)O1	-5.38
in CC#N	-5.63
in CC(=O)N(C)C	-5.52
in CC(=O)O	-4.86
in CC(=O)c1ccccc1	-4.89
in CC(C)(C)O	-3.79
in CC(C)=O	-5.32
in CC(C)CC(C)(C)C	-2.74
in CC(C)CCCC(C)CCCC(C)CCCCC(C)CCCC(C)CCCC(C)C	-2.56
in CC(C)CCO	-3.74
in CC(C)O	-3.92
in CC(C)OC(C)C	-3.87
in CC(Cl)Cl	-4.84
in CCBr	-4.49
in CCC(C)=O	-5.11
in CCCC#N	-5.07
in CCCCC	-2.7
in CCCCCC	-2.8
in CCCCCCC	-2.62
in CCCCCCCC	-2.62
in CCCCCCCCCC	-2.69
in CCCCCCCCCCCCCCCC	-2.52
in CCCCCCCCO	-3.49
in CCCCCl	-4.07
in CCCCO	-3.88
in CCCCOCCCC	-3.57
in CCCO	-3.94
in CCN(CC)CC	-3.55
in CCO	-4.26
in CCOC(C)=O	-4.96
in CCOCC	-4.21
in CCOCCOCCOCC	-4.91
in CCOc1ccccc1	-4.39
in CN1CCCC1=O	-5.53
in CN(C)C=O	-5.58
in CN(C)P(=O)(N(C)C)N(C)C	-5.68
in CNC=O	-5.14
in CO	-4.66
in COC(C)=O	-5.13
in COCCO	-5
in COc1ccccc1	-4.65
in CS(C)=O	-5.63
in Cc1ccc(C)cc1	-4.13
in Cc1cccc(C)n1	-4.67
in Cc1cccc(O)c1	-4.68
in Cc1ccccc1	-4.27
in Cc1ccccn1	-4.88
in ClC(Cl)(Cl)Cl	-3.49
in ClC(Cl)Cl	-4.64
in ClCCCl	-4.9
in ClCCl	-4.98
in Clc1ccccc1	-4.24
in FC(F)(F)C(F)(F)C(F)(F)C(F)(F)C(F)(F)C(F)(F)F	-2.11
in Fc1c(F)c(F)c(F)c(F)c1F	-4.22
in Fc1ccccc1	-4.53
in ICI	-3.76
in Ic1ccccc1	-4.04
in NC=O	-4.73
in Nc1ccccc1	-5.08
in O	-4.03
in O=C1CCCCC1	-5.07
in O=C1CCCO1	-5.44
in O=CN1CCOCC1	-5.28
in OCCO	-4.07
in OCCOCCOCCO	-4.01
in OCc1ccccc1	-4.5
in S=C=S	-3.25
in [2H]O[2H]	-4.01
in c1ccc2ncccc2c1	-4.72
in c1ccc(COCc2ccccc2)cc1	-4.41
in c1ccccc1	-4.5
in c1ccncc1	-5.08

CCCCCCCCC=CCCCCCCCC(=O)OCC
Conditions	solvation free energy, 298 K [kcal/mol]
in O	-8.25

Clc1ccc(Cl)c(Cl)c1
Conditions	solvation free energy, 298 K [kcal/mol]
in CCCCCC	-6.98
in O	-1.16

Cc1cc(NS(=O)(=O)c2ccc(N)cc2)nc(C)n1
Conditions	solvation free energy, 298 K [kcal/mol]
in O	-21.9

CN(C)C(=O)c1ccc([N+](=O)[O-])cc1
Conditions	solvation free energy, 298 K [kcal/mol]
in O	-11.9

CN1CCCC1
Conditions	solvation free energy, 298 K [kcal/mol]
in CCCCCCCCO	-4.97

CC(=O)N(C)C
Conditions	solvation free energy, 298 K [kcal/mol]
in C1CCCCC1	-4.97
in C=CCCCCCCC=C	-5.22
in CC(C)CC(C)(C)C	-5.19
in CCCCCCCCCCCCCCCC	-4.26
in O	-8.15
in [2H]O[2H]	-7.78
in c1ccccc1	-6.41

CNc1nc(NC(C)C)nc(SC)n1
Conditions	solvation free energy, 298 K [kcal/mol]
in O	-10.5

c1ccc(P(c2ccccc2)c2ccccc2)cc1
Conditions	solvation free energy, 298 K [kcal/mol]
in CC(C)O	-15.4
in CCO	-15.7
in CO	-15.4

C=CCCC(C)C
Conditions	solvation free energy, 298 K [kcal/mol]
in C=CCCCCCCCCCCCCCC	-3.87
in O	1.77

N#CCc1ccccc1
Conditions	solvation free energy, 298 K [kcal/mol]
in CCCCCCCCCCCCCCCC	-6.06
in O	-5.05

C=C(C)C
Conditions	solvation free energy, 298 K [kcal/mol]
in CC(C)(C)O	-2.03
in CC(C)=O	-2.37
in CC(C)CCO	-1.99
in CC(C)CO	-1.98
in CC(C)O	-1.98
in CCC(C)(C)O	-2.09
in CCC(C)CO	-1.98
in CCC(C)O	-1.99
in CCC(O)CC	-2.01
in CCCC(C)O	-2.01
in CCCCC	-2.49
in CCCCCC	-2.43
in CCCCCCC	-2.44
in CCCCCCCC	-2.41
in CCCCCCCCC	-2.39
in CCCCCCCCCC	-2.36
in CCCCCO	-2.01
in CCCCO	-2.17
in CCCO	-2.01
in CCOC(C)=O	-2.55
in CN1CCCC1=O	-1.8
in CN(C)C=O	-1.98
in Cc1ccc(C)cc1	-2.32
in Cc1cccc(C)c1	-2.33
in Cc1ccccc1C	-2.31
in ClC(Cl)(Cl)Cl	-2.44
in Ic1ccccc1	-1.91
in N#Cc1ccccc1	-1.97
in O	1.17
in O=CN1CCOCC1	-1.36
in c1ccccc1	-2.32

From the CombiSolv-Exp solvation set (Vermeire and Green 2021)
